Earlier results, collected in patent US11078226B2, “Fluorogenic glycosidase substrate and associated detection method” (ECOLE NORMALE SUPERIEURE DE LYON, priority 2016, dated 2021).

Details: cited from earlier work

O=c1[nH]c(-c2cc(Cl)ccc2O)nc2ccc(Cl)cc12 [dichloro-HPQ, 6-chloro-2-(5-chloro-2-hydroxyphenyl)-4(3H)-quinazolinone]
solubility in aqueous/physiological media: completely insoluble
